# Assay results: article PMC5808925 (Nature, 2017)
# Test system: recombinant HLA-DR*0401
# Type: binding, human
sequence,measurement,value
IKNKIDGETTDYAAPV,affinity for HLA-DR*0401,high affinity
